Assay in all cases: relative viability (nuclei count vs DMSO), 5 days (fraction); higher = more cells survive
Compound in experiment [1]: CC1=C(C=CC(=C1)[N+](=O)[O-])NS(=O)(=O)C2=C(C=CC(=C2)Cl)Cl [FH535] + COc1cc2c(Oc3ccc(NC(=O)C4(C(=O)Nc5ccc(F)cc5)CC4)cc3F)ccnc2cc1OCCCN1CCOCC1 [Foretinib] (partner 0.25 µM)
In a few lines: (§1)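 Dosing by pin tool came one day after lung cancer cell lines were seeded in 1536-well plates, using either one drug or a fixed anchor-drug dose plus five library-drug doses (not always all listed) in √10 steps. After 5 days, nuclei were counted on 4× images. Relative viability is treated-well nuclei count divided by vehicle-well nuclei count, and values are medians of duplicate plates.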

Compound in experiment [2]: CC1=C(C=CC(=C1)[N+](=O)[O-])NS(=O)(=O)C2=C(C=CC(=C2)Cl)Cl [FH535] + CC1(C)CCC(c2ccc(Cl)cc2)=C(CN2CCN(c3ccc(C(=O)NS(=O)(=O)c4ccc(N[C@H](CCN5CCOCC5)CSc5ccccc5)c(S(=O)(=O)C(F)(F)F)c4)cc3)CC2)C1 [Navitoclax] (partner 0.5 µM)
Summed up:
as §1

Compound in experiment [3]: CC1=C(C=CC(=C1)[N+](=O)[O-])NS(=O)(=O)C2=C(C=CC(=C2)Cl)Cl [FH535] + Cc1nc(Nc2ncc(C(=O)Nc3c(C)cccc3Cl)s2)cc(N2CCN(CCO)CC2)n1 [Dasatinib] (partner 0.075 µM)
In a few lines:
as §1

Compound in experiment [4]: CC1=C(C=CC(=C1)[N+](=O)[O-])NS(=O)(=O)C2=C(C=CC(=C2)Cl)Cl [FH535] + CC(=O)Nc1cccc(-n2c(=O)n(C3CC3)c(=O)c3c(Nc4ccc(I)cc4F)n(C)c(=O)c(C)c32)c1 [Trametinib] (partner 0.02 µM)
In a few lines:
as §1

Compound in experiment [5]: CC1=C(C=CC(=C1)[N+](=O)[O-])NS(=O)(=O)C2=C(C=CC(=C2)Cl)Cl [FH535] + CS(=O)(=O)CCNCc1ccc(-c2ccc3ncnc(Nc4ccc(OCc5cccc(F)c5)c(Cl)c4)c3c2)o1 [Lapatinib] (partner 2 µM)
In a few lines: as §1

Turning to SK-LU-1, the relative viability is 0.834 in experiment [1] (first compound 0.04 µM); 0.805 in experiment [1] (first compound 0.1265 µM); 0.822 in experiment [1] (first compound 0.4 µM); 0.662 in experiment [1] (first compound 1.265 µM); 0.89 in experiment [2] (first compound 0.04 µM); 1.01 in experiment [2] (first compound 0.1265 µM). For the same cell line, the relative viability amounted to 0.688 in experiment [2] (first compound 0.4 µM); 0.622 in experiment [2] (first compound 1.265 µM); 0.191 in experiment [3] (first compound 0.04 µM); 0.192 in experiment [3] (first compound 0.1265 µM); 0.182 in experiment [3] (first compound 0.4 µM); 0.194 in experiment [3] (first compound 1.265 µM). For the same cell line, the relative viability in experiment [4] (first compound 0.04 µM) came out at 0.476; in experiment [4] (first compound 0.1265 µM), 0.49; in experiment [4] (first compound 0.4 µM), 0.501; in experiment [4] (first compound 1.265 µM) it was 0.418; in experiment [5] (first compound 0.04 µM), 0.759; in experiment [5] (first compound 0.1265 µM), 0.778. In addition, the relative viability in experiment [5] (first compound 0.4 µM) was 0.609; in experiment [5] (first compound 1.265 µM) it was 0.362.

With SK-MES-1, the relative viability was found to be 0.918 in experiment [1] (first compound 0.04 µM); 1.05 in experiment [1] (first compound 0.1265 µM); 0.963 in experiment [1] (first compound 0.4 µM); 0.814 in experiment [1] (first compound 1.265 µM); 1.16 in experiment [2] (first compound 0.04 µM); 1.22 in experiment [2] (first compound 0.1265 µM). The relative viability in experiment [2] (first compound 0.4 µM) was 1.12; in experiment [2] (first compound 1.265 µM), 0.929; in experiment [3] (first compound 0.04 µM), 0.407; in experiment [3] (first compound 0.1265 µM), 0.47; in experiment [3] (first compound 0.4 µM) it was 0.343; in experiment [3] (first compound 1.265 µM) it was 0.292. For the same cell line, the relative viability in experiment [4] (first compound 0.04 µM) came out at 0.503; in experiment [4] (first compound 0.1265 µM) it was 0.541; in experiment [4] (first compound 0.4 µM), 0.577; in experiment [4] (first compound 1.265 µM) it was 0.552; in experiment [5] (first compound 0.04 µM), 0.493; in experiment [5] (first compound 0.1265 µM), 0.448. Further, the values for the relative viability in experiment [5] (first compound 0.4 µM) and in experiment [5] (first compound 1.265 µM) were 0.422 and 0.412, respectively.

With SW 1573, the relative viability in experiment [1] (first compound 0.04 µM) was determined as 0.784; in experiment [1] (first compound 0.1265 µM), 0.944; in experiment [1] (first compound 0.4 µM), 1.01; in experiment [1] (first compound 1.265 µM), 0.89; in experiment [2] (first compound 0.04 µM), 0.938; in experiment [2] (first compound 0.1265 µM), 1.01. In addition, the relative viability in experiment [2] (first compound 0.4 µM) turned out to be 0.837; in experiment [2] (first compound 1.265 µM), 0.768; in experiment [3] (first compound 0.04 µM), 0.42; in experiment [3] (first compound 0.1265 µM), 0.414; in experiment [3] (first compound 0.4 µM) it was 0.344; in experiment [3] (first compound 1.265 µM), 0.454. The relative viability in experiment [4] (first compound 0.04 µM) stood at 0.686; in experiment [4] (first compound 0.1265 µM), 0.528; in experiment [4] (first compound 0.4 µM), 0.651; in experiment [4] (first compound 1.265 µM) it was 0.376; in experiment [5] (first compound 0.04 µM) it was 1; in experiment [5] (first compound 0.1265 µM), 1.19. Also, the results for the relative viability in experiment [5] (first compound 0.4 µM) and in experiment [5] (first compound 1.265 µM) were 1.18 and 0.98, respectively.

Regarding UMC-11, the relative viability in experiment [1] (first compound 0.04 µM) was 0.967; in experiment [1] (first compound 0.1265 µM), 1.13; in experiment [1] (first compound 0.4 µM), 1.03; in experiment [1] (first compound 1.265 µM), 0.88; in experiment [2] (first compound 0.04 µM), 0.312; in experiment [2] (first compound 0.1265 µM), 0.315. Also, the relative viability was 0.298 in experiment [2] (first compound 0.4 µM); 0.262 in experiment [2] (first compound 1.265 µM); 0.446 in experiment [3] (first compound 0.04 µM); 0.454 in experiment [3] (first compound 0.1265 µM); 0.416 in experiment [3] (first compound 0.4 µM); 0.422 in experiment [3] (first compound 1.265 µM). In addition, the relative viability in experiment [4] (first compound 0.04 µM) came to 0.663; in experiment [4] (first compound 0.1265 µM), 0.525; in experiment [4] (first compound 0.4 µM) it was 0.576; in experiment [4] (first compound 1.265 µM), 0.684; in experiment [5] (first compound 0.04 µM), 0.858; in experiment [5] (first compound 0.1265 µM), 0.994. Besides, the relative viability in experiment [5] (first compound 0.4 µM) was found to be 0.885; in experiment [5] (first compound 1.265 µM), 0.765.

The values are drawn from the supplement of paper PMC10307832.
